Columns and labels:
[1] = Initial activity screening of AB-PINACA (Thomsen et al. conditions) with pHLM; assay type: in vitro ADME, human; conditions: 10 µM, 20 min, 37 °C, 1 µg/µL protein
Description: (§1) The initial activity screening with AB-PINACA was conducted as described by Thomsen et al. with minor modifications (Thomsen et al. [2015]). […] All incubations were done in duplicate. […] Afterwards, 110 µL of 0.1% formic acid in water was added. […] Furthermore, 1 µL was analyzed by liquid chromatography–high-resolution tandem mass spectrometry (LC–HRMS/MS, apparatus details given in the Electronic Supplementary Material).
(§2) Data analysis was based on peak areas.

[2] = Initial activity screening of AB-PINACA (Thomsen et al. conditions) with pHLS9; assay type: in vitro ADME, human; conditions: 10 µM, 20 min, 37 °C, 1 µg/µL protein
Description: as §1, §2

hCES1b [3] = target: T1, hCES1b (Homo sapiens, UniProt P23141); assay: Initial activity screening of AB-PINACA (Thomsen et al. conditions) with hCES1b; assay type: in vitro ADME; parameters: purchased Corning (Amsterdam, The Netherlands); host or cells: baculovirus transfected insect cells; conditions: 10 µM, 20 min, 37 °C, 0.1 µg/µL protein
T1 sequence (P23141 18-567): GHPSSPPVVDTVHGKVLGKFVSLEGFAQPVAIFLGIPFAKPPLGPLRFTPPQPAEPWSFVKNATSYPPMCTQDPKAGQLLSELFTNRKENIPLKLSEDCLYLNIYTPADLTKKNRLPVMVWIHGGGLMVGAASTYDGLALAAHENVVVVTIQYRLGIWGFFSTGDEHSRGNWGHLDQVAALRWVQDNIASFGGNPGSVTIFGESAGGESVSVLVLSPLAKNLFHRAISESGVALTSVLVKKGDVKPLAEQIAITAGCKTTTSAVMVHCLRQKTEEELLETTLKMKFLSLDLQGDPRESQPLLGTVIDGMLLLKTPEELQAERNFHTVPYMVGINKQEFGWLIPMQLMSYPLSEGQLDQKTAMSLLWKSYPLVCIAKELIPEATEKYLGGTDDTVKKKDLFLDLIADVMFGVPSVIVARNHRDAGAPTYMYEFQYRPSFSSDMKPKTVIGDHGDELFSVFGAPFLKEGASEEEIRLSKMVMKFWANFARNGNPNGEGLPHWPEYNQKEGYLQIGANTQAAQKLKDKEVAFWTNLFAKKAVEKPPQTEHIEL
Description: as §1, §2

hCES1c [4] = target: T2, hCES1c (Homo sapiens, UniProt P23141); assay: Initial activity screening of AB-PINACA (Thomsen et al. conditions) with hCES1c; assay type: in vitro ADME; parameters: purchased Corning (Amsterdam, The Netherlands); host or cells: baculovirus transfected insect cells; conditions: 10 µM, 20 min, 37 °C, 0.1 µg/µL protein
T2 sequence (P23141 18-566 isoform P23141-3 limits assumed): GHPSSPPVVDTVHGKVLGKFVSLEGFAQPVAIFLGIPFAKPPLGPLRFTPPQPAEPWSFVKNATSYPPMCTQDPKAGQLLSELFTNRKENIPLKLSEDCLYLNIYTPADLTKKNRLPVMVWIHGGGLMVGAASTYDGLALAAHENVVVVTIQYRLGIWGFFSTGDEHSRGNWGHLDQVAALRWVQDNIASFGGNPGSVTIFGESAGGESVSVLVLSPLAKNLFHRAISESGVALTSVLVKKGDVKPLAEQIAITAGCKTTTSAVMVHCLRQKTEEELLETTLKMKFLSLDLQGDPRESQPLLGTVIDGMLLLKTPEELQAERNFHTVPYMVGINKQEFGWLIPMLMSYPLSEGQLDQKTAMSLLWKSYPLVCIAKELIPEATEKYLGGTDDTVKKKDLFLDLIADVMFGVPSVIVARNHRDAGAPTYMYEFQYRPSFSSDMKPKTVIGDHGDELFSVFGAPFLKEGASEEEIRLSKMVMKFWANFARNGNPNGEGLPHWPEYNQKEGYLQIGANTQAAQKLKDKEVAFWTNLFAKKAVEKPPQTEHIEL
Description: as §1, §2

hCES2 [5] = target: T3, hCES2 (Homo sapiens, UniProt O00748); assay: Initial activity screening of AB-PINACA (Thomsen et al. conditions) with hCES2; assay type: in vitro ADME; parameters: purchased Corning (Amsterdam, The Netherlands); host or cells: baculovirus transfected insect cells; conditions: 10 µM, 20 min, 37 °C, 0.1 µg/µL protein
T3 sequence (O00748 27-559): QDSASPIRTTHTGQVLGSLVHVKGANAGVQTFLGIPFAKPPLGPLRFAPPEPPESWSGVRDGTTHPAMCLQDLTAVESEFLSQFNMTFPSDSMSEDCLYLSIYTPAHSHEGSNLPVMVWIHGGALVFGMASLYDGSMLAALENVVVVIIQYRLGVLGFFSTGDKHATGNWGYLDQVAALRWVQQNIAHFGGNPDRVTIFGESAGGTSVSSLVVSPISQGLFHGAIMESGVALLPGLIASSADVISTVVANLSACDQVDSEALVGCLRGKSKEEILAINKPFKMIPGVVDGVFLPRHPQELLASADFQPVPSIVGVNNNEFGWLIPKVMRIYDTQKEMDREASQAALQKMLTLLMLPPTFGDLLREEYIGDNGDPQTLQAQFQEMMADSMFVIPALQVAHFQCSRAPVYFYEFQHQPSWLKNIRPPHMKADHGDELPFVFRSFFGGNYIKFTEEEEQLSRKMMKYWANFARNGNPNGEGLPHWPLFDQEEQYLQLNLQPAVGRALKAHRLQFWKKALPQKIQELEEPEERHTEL
Description: as §1, §2

hCES2 [6] = target: T3, hCES2; assay: Initial activity screening with recombinant hCES2; conditions: 100 µM substrate, 30 min, 37 °C, 0.2 µg/µL protein, LC–ITMS
hCES1b [7] = target: T1, hCES1b; assay: Initial activity screening with recombinant hCES1b; conditions: 100 µM substrate, 30 min, 37 °C, 0.2 µg/µL protein, LC–ITMS
hCES1c [8] = target: T2, hCES1c; assay: Initial activity screening with recombinant hCES1c; conditions: 100 µM substrate, 30 min, 37 °C, 0.2 µg/µL protein, LC–ITMS
hCES1b [9] = target: T1, hCES1b; assay: Enzyme kinetic studies of ester hydrolysis with hCES1b
hCES1c [10] = target: T2, hCES1c; assay: Enzyme kinetic studies of ester hydrolysis with hCES1c
[11] = Initial activity screening with pooled human liver microsomes; conditions: 100 µM substrate, 30 min, 37 °C, 2 µg/µL protein, LC–ITMS, mean n = 2
[12] = Initial activity screening with pooled human liver S9 fraction; conditions: 100 µM substrate, 30 min, 37 °C, 2 µg/µL protein, LC–ITMS, mean n = 2
not read [13] = substrate: C=CCCCn1cc(C(=O)N[C@H](C(=O)OC)C(C)C)c2ccccc21; assay: not read; conditions: other: ± S.D.; Michaelis–Menten fit, conditions of Table 1; pH 7.4
not read [14] = substrate: COC(=O)C(Cc1ccccc1)NC(=O)c1cn(CCCCCF)c2ccccc12; assay: not read; conditions: other: ± S.D.; Michaelis–Menten fit, conditions of Table 1; pH 7.4
[15] = ± S.D., peak area ratio metabolite/internal standard

Molecule: CCCCCn1nc(C(=O)N[C@H](C(N)=O)C(C)C)c2ccccc21 [AB-PINACA, (S)-N-(1-amino-3-methyl-1-oxobutan-2-yl)-1-pentyl-1H-indazole-3-carboxamide]
- Relative amount of carboxylic acid metabolite formed (head group carboxamide hydrolysis), pHLM ([1]; LC–HRMS/MS): 4.3%
- Metabolite detection by LC–ITMS, pHLM ([1]; LC–ITMS): no AB-PINACA metabolites were detected
- Relative amount of carboxylic acid metabolite formed (head group carboxamide hydrolysis), pHLS9 ([2]; LC–HRMS/MS): 2.2%
- Metabolite detection by LC–ITMS, pHLS9 ([2]; LC–ITMS): no AB-PINACA metabolites were detected
- Relative amount of carboxylic acid metabolite formed (head group carboxamide hydrolysis), hCES1b (hCES1b [3]; LC–HRMS/MS): 1.4%
- Metabolite detection by LC–ITMS, hCES1b (hCES1b [3]; LC–ITMS): no AB-PINACA metabolites were detected
- Metabolite detection by LC–ITMS, hCES1c (hCES1c [4]): no AB-PINACA metabolites were detected
- Metabolite detection by LC–ITMS, hCES2 (hCES2 [5]): no AB-PINACA metabolites were detected

Molecule: N-[(2S)-1-amino-3,3-dimethyl-1-oxobutan-2-yl]-1-[(4-fluorophenyl)methyl]-1H-indazole-3-carboxamide [MMB-FUBINACA]
- Hydrolysis of carboxamide linker, hCES2 (hCES2 [6]): −
- Hydrolysis of carboxamide/ester in head group, hCES2 (hCES2 [6]): +
- Relative amount of hydrolysis metabolite formed, hCES2 (hCES2 [6]; mean n = 2): 3.2%
- Hydrolysis of carboxamide linker, hCES1b (hCES1b [7]): −
- Hydrolysis of carboxamide/ester in head group, hCES1b (hCES1b [7]): +
- Relative amount of hydrolysis metabolite formed, hCES1b (hCES1b [7]; mean n = 2): 78%
- Hydrolysis of carboxamide linker, hCES1c (hCES1c [8]): −
- Hydrolysis of carboxamide/ester in head group, hCES1c (hCES1c [8]): +
- Relative amount of hydrolysis metabolite formed, hCES1c (hCES1c [8]; mean n = 2): 87%
- Clint (relative in vitro intrinsic clearance), hCES1b (hCES1b [9]; Clint = Vmax/Km): 1.7 AU/min/mg/µM
- Km (hCES1b [9]; read-out: Km, ester hydrolysis by hCES1b, ± S.D., Michaelis–Menten fit, conditions of Table 1): 40.8 ± 15 µM
- Vmax (relative), ester hydrolysis by hCES1b (hCES1b [9]; [15]): 70.3 ± 7.6 AU/min/mg
- Clint (relative in vitro intrinsic clearance), hCES1c (hCES1c [10]; Clint = Vmax/Km): 1.2 AU/min/mg/µM
- Km (hCES1c [10]; read-out: Km, ester hydrolysis by hCES1c, ± S.D., Michaelis–Menten fit, conditions of Table 1): 25.7 ± 3.5 µM
- Vmax (relative), ester hydrolysis by hCES1c (hCES1c [10]; [15]): 30.7 ± 0.96 AU/min/mg
- Relative amount of hydrolysis metabolite formed, pHLM [11]: complete transformation
- Relative amount of hydrolysis metabolite formed, pHLS9 [12]: complete transformation

B1: hCES1c (Homo sapiens) (protein)
chain: GHPSSPPVVDTVHGKVLGKFVSLEGFAQPVAIFLGIPFAKPPLGPLRFTPPQPAEPWSFVKNATSYPPMCTQDPKAGQLLSELFTNRKENIPLKLSEDCLYLNIYTPADLTKKNRLPVMVWIHGGGLMVGAASTYDGLALAAHENVVVVTIQYRLGIWGFFSTGDEHSRGNWGHLDQVAALRWVQDNIASFGGNPGSVTIFGESAGGESVSVLVLSPLAKNLFHRAISESGVALTSVLVKKGDVKPLAEQIAITAGCKTTTSAVMVHCLRQKTEEELLETTLKMKFLSLDLQGDPRESQPLLGTVIDGMLLLKTPEELQAERNFHTVPYMVGINKQEFGWLIPMLMSYPLSEGQLDQKTAMSLLWKSYPLVCIAKELIPEATEKYLGGTDDTVKKKDLFLDLIADVMFGVPSVIVARNHRDAGAPTYMYEFQYRPSFSSDMKPKTVIGDHGDELFSVFGAPFLKEGASEEEIRLSKMVMKFWANFARNGNPNGEGLPHWPEYNQKEGYLQIGANTQAAQKLKDKEVAFWTNLFAKKAVEKPPQTEHIEL
- Km (not read [13]): 203 ± 43 µM
- Km (not read [14]): 23.2 ± 4.1 µM

B2: hCES1b (Homo sapiens) (protein)
chain: GHPSSPPVVDTVHGKVLGKFVSLEGFAQPVAIFLGIPFAKPPLGPLRFTPPQPAEPWSFVKNATSYPPMCTQDPKAGQLLSELFTNRKENIPLKLSEDCLYLNIYTPADLTKKNRLPVMVWIHGGGLMVGAASTYDGLALAAHENVVVVTIQYRLGIWGFFSTGDEHSRGNWGHLDQVAALRWVQDNIASFGGNPGSVTIFGESAGGESVSVLVLSPLAKNLFHRAISESGVALTSVLVKKGDVKPLAEQIAITAGCKTTTSAVMVHCLRQKTEEELLETTLKMKFLSLDLQGDPRESQPLLGTVIDGMLLLKTPEELQAERNFHTVPYMVGINKQEFGWLIPMQLMSYPLSEGQLDQKTAMSLLWKSYPLVCIAKELIPEATEKYLGGTDDTVKKKDLFLDLIADVMFGVPSVIVARNHRDAGAPTYMYEFQYRPSFSSDMKPKTVIGDHGDELFSVFGAPFLKEGASEEEIRLSKMVMKFWANFARNGNPNGEGLPHWPEYNQKEGYLQIGANTQAAQKLKDKEVAFWTNLFAKKAVEKPPQTEHIEL
- Km (not read [14]): 88.9 ± 18 µM

— PMC9352624, “Going deeper into the toxicokinetics of synthetic cannabinoids: in vitro contribution of human carboxylesterases” (Archives of Toxicology, 2022)
